Experimental findings from the METLIN SMRT retention time set (Domingo-Almenara et al. 2019) are described below.

Molecules are shown by their SMILES.

The data set is described as follows: gradient 5% acetonitrile 3 min, to 50% in 2 min, to 85% in 15 min, held 3 min, 100 µL/min. The following applies: column: Zorbax Extend-C18 2.1 x 50 mm; eluents: water / acetonitrile, 0.1% formic acid. Put shortly: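 Pure standards were run in mixtures of ~100 molecules by HPLC coupled to a quadrupole time-of-flight mass spectrometer. The column was a Zorbax Extend-C18 (2.1 × 50 mm, 1.8 μm) at 100 μL/min, with water and acetonitrile each containing 0.1% formic acid, in positive and negative ionization mode. Dead and dwell volumes were 40 μL and 900 μL. Retention time was taken from computationally picked adduct peaks, each manually inspected, with data collected over 3 months.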
As for `O=C(Cn1cnc2nc3c(cc2c1=O)CCCC3)NC1CCCCCC1`, the RP-LC retention time came to 662 s. Under `CN1C(=O)c2cccnc2Sc2cc(NC(=O)Cc3cccc(F)c3)ccc21` stands 784 s. Under `CS(=O)(=O)N1CCC(C(=O)NCc2ccccc2Cl)Oc2ccccc21` (centres undefined) stands 888 s; under `CCN(CCN(C)C)C(=O)c1c2c(nc3ccccc13)C(=O)N(C1CCCCC1)C2`, 601 s.

Consider `O=C(NCCC1CCN(C(=O)Nc2ccc(F)cc2F)CC1)C1CCC1`, for which the RP-LC retention time was determined as 720 s. The value for `CCN(CCCNC(=O)Cn1ccc2c(=O)n(C)c(=O)n(C)c21)c1ccccc1` was 578 s. In the case of `CC(=O)c1ccc(N2CCN(C(=O)CN3C(=O)C4C5C=CC(C5)C4C3=O)CC2)cc1` (centres undefined), the RP-LC retention time is 644 s.

`Cc1nnc2c(NC(=O)c3cc(F)ccc3F)cccn12` came in with an RP-LC retention time of 705 s. Under `Cc1[nH]c(=O)[nH]c(=O)c1CCC(=O)Nc1cccc(-c2nc3ccccc3s2)c1` stands 672 s.

`CCc1nc2cc(-c3noc(-c4ccsc4)n3)ccc2o1` had an RP-LC retention time of 1100 s.

Regarding `O=C(Cc1nnc2cc(-c3nc(C4CC4)no3)ccn12)Nc1ccc(Cl)cc1`, the RP-LC retention time amounted to 816 s.

In turn, `CCCNC(=O)N1CCC(CCOc2ccncc2)CC1` yielded an RP-LC retention time of 571 s. The value for `CC(C)CNC(=O)CCc1nc2ccccc2n(CC(=O)NCc2ccccc2Cl)c1=O` was 822 s; that for `COc1ccc(N2CCN(C(=O)CN3C(=O)NC(c4ccc(Cl)cc4)C4=C3COC4=O)CC2)cc1` (centres undefined) was 752 s; that for `COc1ccc(C(=O)N2CCCC2c2nc(-c3ccc(OC)c(OC)c3)no2)cc1` (centres undefined) was 848 s. The compound `CCCS(=O)(=O)N1[C@H]2CC[C@@H]1c1cnc(-c3ccc(F)cc3)nc1C2` showed an RP-LC retention time of 1010 s. Under `Cc1ccc2c(Nc3ccc(S(N)(=O)=O)cc3)c(C(=O)OC(C)C)cnc2n1` stands 840 s. In the case of `O=C(C1CCCC1)N1CCN(c2cc(-c3ccc(Cl)cc3)[nH]n2)CC1`, the RP-LC retention time was 877 s. Consider `O=C(c1cc2c(s1)CCC(C(=O)N1CCN(c3ccccn3)CC1)C2)N1CCCC1` (centres undefined), for which the RP-LC retention time worked out at 600 s. In turn, `COc1ccc(CCC(=O)NC2CCN(c3nnc4ccc(C(F)(F)F)cn34)CC2)cc1` gave an RP-LC retention time of 767 s. The value for `COC(=O)c1ccc(CSc2nnc(C(C)C)c3cnn(-c4ccc(F)cc4)c23)o1` was 840 s.

The compound `Cn1nc(C(=O)N2CCCC(C(=O)NC3CC3)C2)c2c1CCN(C(=O)Cc1ccc(Cl)cc1)C2` (centres undefined) returned an RP-LC retention time of 693 s.

`CCOCCOC(=O)C1=C(C)NC2=C(C(=O)C(C(=O)OC)C(C)C2)C1c1ccccc1F` (centres undefined): the RP-LC retention time is 862 s. Consider `O=C(NCc1ccc(F)cc1F)c1ccc2c(c1)nc1n2CCN(Cc2ccccc2)C1=O`, for which the RP-LC retention time is 795 s. The value for `CCCN(C(=O)Nc1ccc(CC)cc1)c1nc(-c2ccc(Br)cc2)cs1` was 660 s; that for `NC(=O)c1cnc(N[C@@H]2CCCC[C@@H]2N)nc1Nc1cccc(-n2nccn2)c1` was 654 s. Under `O=C(Nc1cc(F)cc(F)c1)C1CCN(c2cc(N3CCCC3)ncn2)CC1` stands 724 s; under `CCN1C(=O)c2cccnc2Sc2cc(NC(=O)CCc3ccccc3)ccc21`, 950 s; under `CCn1cc(S(=O)(=O)NCc2cccc(C)c2)c2cccnc21`, 845 s.

With `CCn1cc2c(n1)c(=O)n(Cc1ccc(F)cc1)c(=O)n2CC(=O)Nc1cc(F)ccc1F`, the RP-LC retention time was 905 s.

For the compound `CNC(=O)C1CCCN(c2nc3ncn(CC(=O)Nc4ccc(C(C)C)cc4)c(=O)c3s2)C1` (centres undefined), the RP-LC retention time was 731 s. In turn, `Cc1nc2cc(-c3noc(Cc4ccccc4C)n3)ccc2o1` gave an RP-LC retention time of 1060 s. `COc1cc(CCC(=O)N2C[C@@H](C(N)=O)[C@H](c3n[nH]c(C)n3)C2)on1` registered an RP-LC retention time of 566 s. `CCOc1ccc(-c2noc(Cn3nc(-c4ccc5c(c4)OCO5)ccc3=O)n2)cc1` came in with an RP-LC retention time of 1130 s.

For the compound `Cc1cc(NC(=O)c2cc(=O)c3ccccc3o2)n(-c2nc(-c3ccc(F)cc3)cs2)n1`, the RP-LC retention time was 1240 s.

Take `Cn1c(SCC(=O)Nc2nc(-c3ccccc3)cs2)nnc1-c1cc2ccccc2o1`: the RP-LC retention time came out at 961 s.

With `CCn1cc(C)c(C(=O)O)c1CC(=O)NCCc1ccc(C)cc1`, the RP-LC retention time stood at 842 s. For the compound `Cc1ccc(C(=O)OCC(=O)c2ccc([N+](=O)[O-])cc2)o1`, the RP-LC retention time was 688 s.

For the compound `COc1ccc(NC(=O)c2c(OC)cc(=O)n3c2CCCC3)c(OC)c1`, the RP-LC retention time is 877 s. As to `O=C(Nc1ccc(-c2nnc3n2CCCC3)cc1)C1CCC1`, the RP-LC retention time was 622 s. The compound `Cc1cccc(N2CCN(CC(O)COc3ccc(Cl)cc3)CC2)c1` (centres undefined) displayed an RP-LC retention time of 846 s. `NC(=O)C(=O)c1cn(CC(=O)NC2CCCCC2)c2ccccc12` came in with an RP-LC retention time of 743 s. The value for `O=C(CCc1c(-c2ccc(Br)cc2)nc2ccccn12)NCc1ccco1` was 660 s. `Cc1cccc(CN2CCCn3nc(C(=O)NCc4ccc5c(c4)OCO5)cc3C2=O)c1`: the RP-LC retention time stood at 861 s. Under `N#CC(c1ccc(Cl)cc1)c1c(Cl)cc(N2NCC(=O)NC2=O)cc1Cl` (centres undefined) stands 1020 s; under `CCc1ccccc1S(=O)(=O)N1CCC(C(=O)NCCc2csc(-c3cccs3)n2)CC1`, 981 s. The value for `CCOC(=O)c1ccccc1NC(=O)CSc1ccc(-c2ccccn2)nn1` was 906 s.

As to `CC(C)(C)C(=O)N1CCCC1c1nc2ccccc2s1` (centres undefined), the RP-LC retention time was 932 s.

As for `O=C(NCCc1ccccc1)c1nc(Cn2c(=O)oc3ccccc32)no1`, the RP-LC retention time came out at 888 s. `O=C(O)c1cnc(N2CCOCC2)nc1-c1ccc(Cl)cc1` gave an RP-LC retention time of 823 s. Take `CC(C)CNC(=O)N1CCc2nc(OCC3CC3)ccc2C1`: the RP-LC retention time was determined as 848 s. As for `CN(Cc1ccco1)C(=O)C1CCCN(c2nc3cccnc3s2)C1` (centres undefined), the RP-LC retention time stood at 745 s. Under `O=C(CSc1ccc(-c2cccc([N+](=O)[O-])c2)nn1)c1ccc(F)cc1` stands 944 s. Regarding `O=C(c1ccccc1)C1N=NCC1c1ccc(Cl)cc1` (centres undefined), the RP-LC retention time turned out to be 1040 s. As to `CN1C(=O)c2cccnc2Sc2cc(NC(=O)Cc3cccc(Cl)c3)ccc21`, the RP-LC retention time amounted to 831 s.

`Cn1ncc2c3ccccc3n(CC(=O)NCCCN3CCN(Cc4ccccc4)CC3)c2c1=O` yielded an RP-LC retention time of 597 s. For `Cc1cccc(C(=O)Nc2nc(-c3ccc4c(c3)NC(=O)C(C)O4)c(C)s2)c1` (centres undefined), the RP-LC retention time was 979 s. Under `O=C(N1CCC(Cc2nc(C3CCOCC3)no2)CC1)C1(c2ccccc2)CC1` stands 817 s. Compound `CC(C)(C)c1csc(NC(=O)c2ccc3c(c2)OCCO3)n1` returned an RP-LC retention time of 976 s. Regarding `O=C(NCC(c1cccs1)N1CCc2ccccc21)c1ccco1` (centres undefined), the RP-LC retention time came to 894 s. Under `O=C(CCc1conc1-c1ccc(F)cc1)N1CCN(c2ccc(Cl)cc2)CC1` stands 1090 s; under `CC(NC(=O)c1ccc2nc(-c3ccc(Cl)cc3)cn2c1)c1cccnc1` (centres undefined), 603 s; under `Cc1cccc(NC(=O)Cn2c(=O)n3nc(CCn4nc(C)cc4C)nc3c3ccccc32)c1`, 775 s. Under `Cc1ccc2[nH]c(C(=O)NCc3ccncc3)cc2c1` stands 628 s; under `Cc1ccc(-c2noc(-c3cccc(S(=O)(=O)N4CCN(c5ccccn5)CC4)c3)n2)cc1`, 995 s. The value for `CCOC(=O)c1cc(S(=O)(=O)N2CCCC2C(=O)Nc2ccccc2C(F)(F)F)cn1C` (centres undefined) was 999 s. `COc1cccc(CNC(=O)C2(C)CCN(C(=O)Nc3ccc(Br)c(C)c3)CC2)c1` showed an RP-LC retention time of 934 s. Turning to `Cc1ccc(Nc2cc(N3CCC(C(=O)N4CCSCC4)CC3)ncn2)cc1`, the RP-LC retention time was found to be 682 s.

The compound `COc1cccc(-c2noc(Cn3ccn(-c4ccccc4C)c(=O)c3=O)n2)c1OC` had an RP-LC retention time of 798 s. `Cc1ccc(CN2CCN(C3CCN(C(=O)Nc4ccc5c(c4)OCCO5)CC3)C2=O)cc1` showed an RP-LC retention time of 765 s. The value for `CN1C(=O)c2cccn2CC1CNS(=O)(=O)c1cccc2nsnc12` (centres undefined) was 680 s; that for `CCOC(=O)N1CCc2c(sc(NC(=O)c3cc(C)on3)c2C(=O)OC)C1` was 949 s; that for `Cn1nccc1C(=O)N1CCC(c2noc(-c3ccncc3)n2)C1` (centres undefined) was 642 s. In the case of `COc1ncc(C(=O)Nc2cc(C)ccc2C)c(C)n1`, the RP-LC retention time amounted to 748 s.

As to `Cc1ccc(C(C)NC(=O)CN2C(=O)NC3(CCCCC3)C2=O)cc1` (centres undefined), the RP-LC retention time amounted to 804 s. For the compound `CCCN1CCN(c2ncc3c(n2)CCN(Cc2cccc(OC)c2)C3)CC1`, the RP-LC retention time was found to be 1120 s. `CCOC(=O)N1CCC(NS(=O)(=O)C2CC2)CC1` yielded an RP-LC retention time of 632 s. Under `CCOC(=O)C1CCN(Cc2nc(-c3ccc(N4CCCCC4)nc3)no2)CC1` stands 664 s. Under `Cc1nccn1CCC(C(N)=O)(c1ccccc1)c1ccccc1` stands 688 s.
